Assay results from patent US20140045809A1, “CORROLES FOR NEUROPROTECTION AND NEURORESCUE” (priority 2008, published 2014).
pIC50: −log10 of the molar value. Entries after “also recorded” stand apart in the source; their conditions may differ. One block for each molecule: values may come before it.

Assays:
[1] = SOD activity (catalytic decomposition of superoxide anion radical), cytochrome C assay; format: biochemical
Method: (§1) SOD activity (enzyme-like catalytic decomposition of superoxide anion radical) of the corroles 1C-Fe, 6C-Fe, 1C-Mn, 1C-Cu, 2C-Mn and 3C-Mn was examined via the cytochrome C assay. The catalytic rate constants for decomposition of peroxynitrite (PN) by the newly prepared iron corrole 6C-Fe and manganese corrole 3C-Mn were determined via stopped-flow kinetics as previously described for corroles 1C-Fe, 1C-Mn, and 2C-Mn (Mahammed and Gross, 2006; Gershman et al., 2007). These tests are performed in order to estimate how electronic and structural variables affect reactivity, which is a crucial factor for design of new complexes.

[2] = Rescuing DMSO from damage attributed to the hydroxyl radical (Fenton reaction); format: biochemical; settings: for Yield (%) or amount of product (Formaldehyde): substrate DMSO
Excerpt: Corrole complexes were examined with respect to their efficiency of rescuing DMSO from damage attributed to the hydroxyl radical, formed via the Fenton reaction that also involves superoxide anion radical and hydrogen […]. It also mimics reaction occurring in biological systems that are exposed to metal toxicity, the situation that occurs in diseases caused by brain iron accumulation.

RIN-m cells [3] = assay: Protection of RIN-m cells against SIN-1 toxicity (MTT); format: cell-based, rat; settings: 0.1-20 μM, 30 min before SIN-1 (800 μM), 24 h
Method: INS-1E cells or RIN-m cells were cultured in RPMI with low serum content (2% FCS), placed in microtiter plates (96 wells) at a density of 2.5×10^4 cells/well and allowed to attach for 24 h before treatment. Corroles 1C-Fe and 5C-Fe (10 μM) were added 30 min prior to insult with the nitric oxide donor SIN-1 (500 or 600 μM) for a subsequent 24 h period. Cell viability was evaluated by a colorimetric assay for mitochondrial function using 3-(4,5-dimethylthiazol-2-yl)-2,5-diphenyltetrazolium bromide (MTT test), and expressed as percentage of untreated control. Values higher than 100% reflect increased mitochondrial activity induced by the drug. The results represent the mean±SEM of three independent experiments performed under the same conditions.
Insulin-secreting RIN-m cells were incubated in RPMI with low serum content (2% FCS) and placed in microtiter plates (96 wells) at a density of 2.5×10^4 cells/well and allowed to attach for 24 h before treatment. Cells were treated with corroles 1C-Fe, 1C-Mn or 2C-Mn or porphyrins 1P-Fe or 2P-Mn, in various concentrations (0.1-20 μM), for 30 min prior to insult with SIN-1 (800 μM) for a subsequent 24 h period. Cell viability was evaluated by MTT test and expressed as percentage of untreated control.

RIN-m cells [4] = assay: Protection of RIN-m beta cells against H2O2 toxicity (MTT); format: cell-based, rat; settings: H2O2 150 μM
Method: Two insulin-secreting beta cell lines, rat insulinoma (INS-1E) and RIN-m cells, were used to examine the protective effect of corrole 1C-Fe. The cells were cultured at 37° C., in a humid 5% CO2, 95% air environment in regular RPMI-1640 medium (Invitrogen) supplemented with 5% fetal calf serum (FCS).
After 2 days of culture, RIN-m cells (5×10^4 cells/well in 96-well plates) were treated with corrole 1C-Fe (1-50 μM) before addition of 35 μM of H2O2. Cell viability was evaluated by a colorimetric assay for mitochondrial function estimation using the MTT test as previously described (Gassen et al., 1998) and expressed as percentage of control.
RIN-m cells were grown as described in Example 5. After 3 days of culture, RIN-m cells (2.5×10^4 cells/well in 96-well plates) were treated with corroles 1C-Fe or 5C-Fe or porphyrin 1P-Fe (1 and 20 μM), added 30 min prior to treatment with 35 μM H2O2 and further incubated for 24 h. Cell injury was evaluated by MTT test. […] […].
Protective effect of iron(III) corrole complexes against H2O2-induced toxicity (150 μM) was compared to that of manganese(III) corroles and related porphyrin. […].

[5] = Catalytic decomposition of peroxynitrite (PN), stopped-flow kinetics (Table 1); format: biochemical
Method: as §1

[6] = Peroxynitrite decomposition rates by manganese corroles (Example 2); format: biochemical; settings: 385 μM peroxynitrite, pH 7.4, 25° C., absorbance at 302 nm; Table 2
Method: The investigations were performed by examining the decay of 385 μM peroxynitrite at pH 7.4 and 25° C. in the presence and absence of various amounts of Mn corrole catalysts 2C-Mn, 2C′-Mn, 2C″-Mn, 3C-Mn and 4C-Mn. The differences between 2C-Mn, 2C′-Mn, and 2C″-Mn is in the identity of the 10-aryl group, which is C6F5, para-anisyl, and phenyl, respectively. The results (one example using 4C-Mn is shown in FIG. 1) were obtained by monitoring changes in absorbance at 302 nm, the λmax of peroxynitrite. The catalytic performances of five of the above compounds were tested; and the thus elucidated kcat values are presented in Table 2. Importantly, in sharp contrast with the corroles, none of the structurally similar manganese (III) porphyrin complexes affected the decomposition of peroxynitrite by any extent (not shown).

nitrotyrosine (Ntyr) = assay: SIN-1-induced cellular protein nitration, nitrotyrosine immunofluorescence in SH-SY5Y cells; format: cell-based, human; settings: 20 μM corrole, SIN-1 700 μM, 24 h
Method: To determine the effect of the corroles on SIN-1-induced cellular protein nitration, SH-SY5Y neuroblastoma cells were treated with SIN-1 (700 μM) in the absence or presence of 20 μM of the corroles 1C-Fe, 2C-Mn, and 3C-Mn. Protein nitration was detected by immunofluorescence analysis using a monoclonal antibody against nitrotyrosine (Ntyr), a biological marker of peroxynitrite.

SH-SY5Y cells [7] = assay: Neuroprotection/neurorescue against SIN-1-induced cell death in SH-SY5Y cells; format: cell-based, human
Method: SH-SY5Y cells were cultured in DMEM-Eagle/F-12(HAM) (1:1) containing 10% FCS. Cells were resuspended in medium containing 2% FCS, seeded in microtiter plates (96 wells) and allowed to attach for 24 h before initiation of treatment. […]

SH-SY5Y cells [8] = format: cell-based; settings: 20 μM
Method: SH-SY5Y cells were cultured in DMEM-Eagle/F-12(HAM) (1:1) containing 10% FCS. Cells were resuspended in medium containing 2% FCS, seeded in microtiter plates (96 wells) and allowed to attach for 24 h. To examine the neuroprotective effect, cells were pretreated for 30 min with corroles 1C-Fe and 5C-Fe (1-20 μM), and were then exposed to 6-OHDA (60 μM) for further 24 h. For neurorescue assessment, SH-SY5Y cells were first treated with 6-OHDA (60 μM) for 0.5 h, 1.5 h, 3 h and 6 h followed by the addition of compounds 1C-Fe and 5C-Fe (10 μM) for further 24 h.
(§2) SH-SY5Y cells were pretreated with or without corroles 1C-Fe, 2C-Mn and 3C-Mn and porphyrins 1P-Fe and 2P-Mn (20 μM), 30 min before exposure to 6-OHDA (40 μM) for a subsequent 24 h period. Cell viability was evaluated by MTT test and cell death was assessed using the apoptotic cell death detection ELISA kit. For neurorescue, SH-SY5Y cells were first exposed to 40 μM 6-OHDA for 0.5. 1, 1.5 and 3 h, followed by the addition of the compounds 1C-Fe, 2C-Mn and 3C-Mn (20 μM) and incubated for further 24 h. Growth-associated protein (GAP-43) was detected by fluorescence microscopy using a specific primary antibody. Apoptotic nuclei were determined by terminal deoxynucleotidyl transferase-mediated UTP-digoxigenin nick end labeling analysis. 4′,6-Diamidino-2-phenylnidole (DAPI) staining was applied for nuclear labeling. […]

SH-SY5Y cells [9] = format: cell-based; settings: up to 50 μM; data not shown
cleaved caspase-3 = assay: Cleaved caspase-3 level in 6-OHDA-treated SH-SY5Y cells, immunofluorescence; format: cell-based, human; settings: 20 μM, 30 min before 6-OHDA (40 μM), 24 h
Method: as §2
Since 6-OHDA is also known to induce apoptosis in various cell types, including SH-SY5Y (von Coelln et al. 2001; Nie et al. 2002; Shimizu et al. 2002; Jordan et al. 2004), we further tested effect of corroles on the levels of the apoptotic marker, cleaved caspase-3, a major executer of the mitochondrial intrinsic pathway of apoptosis.

[10] = CuSO4/ascorbate, no additive 44 μM
[11] = CuSO4/glutathione, no additive 11 μM
[12] = 30 min before 6-OHDA (40 μM), 24 h

- pIC50 [1]: 4.92
Structure (SMILES): O=S(=O)(O)c1cc2[n]3c1C(c1c(F)c(F)c(F)c(F)c1F)=C1C=CC4=[N+]1[Cu-]31[n]3c(cc(S(=O)(=O)O)c3-2)C(c2c(F)c(F)c(F)c(F)c2F)=c2ccc([n]21)=C4c1c(F)c(F)c(F)c(F)c1F (centres unmarked) [1C-Cu, 2,17-bis(sulfonato)-5,10,15-tris(pentafluorophenyl)-corrolato copper(III)]

- pIC50 [1]: 5.23
Structure (SMILES): O=S(=O)(O)c1cc2[n]3c1C(c1c(F)c(F)c(F)c(F)c1F)=C1C=CC4=[N+]1[Mn-]31[n]3c(cc(S(=O)(=O)O)c3-2)C(c2c(F)c(F)c(F)c(F)c2F)=c2ccc([n]21)=C4c1c(F)c(F)c(F)c(F)c1F (centres unmarked) [1C-Mn, 2,17-bis(sulfonato)-5,10,15-tris(pentafluorophenyl)-corrolato manganese(III)]
- Yield (%) or amount of product (Formaldehyde) [2, 10]: 20 µM
- Yield (%) or amount of product (Formaldehyde) [2, 11]: 7 µM
- protective effect against SIN-1 induced toxicity (MTT), comparative (RIN-m cells [3]): ineffective
- cytoprotective effect against H2O2-induced toxicity (RIN-m cells [4]): totally inefficient; also recorded: inefficiency
- kcat, catalytic rate constant for decomposition of PN [5]: 40000 M⁻¹ s⁻¹

Structure (SMILES): COc1ccc(C2=c3ccc4[n]3[Mn-]35[n]6c(ccc6-c6ccc([n]63)C=4c3cc[n+](C)cc3)C(c3cc[n+](C)cc3)=C3C=CC2=[N+]35)cc1 (centres unmarked) [2C′-Mn]
- kcat, peroxynitrite decomposition rate [6]: 77000 M⁻¹ s⁻¹

Structure (SMILES): C[n+]1ccc(C2=C3C=CC4=[N+]3[Mn-]35[n]6c2ccc6-c2ccc([n]23)C(c2cc[n+](C)cc2)=c2ccc([n]25)=C4c2ccccc2)cc1 (centres unmarked) [2C″-Mn]
- kcat, peroxynitrite decomposition rate [6]: 81000 M⁻¹ s⁻¹

Structure (SMILES): C[n+]1ccc(C2=C3C=CC4=[N+]3[Mn-]35[n]6c2ccc6C(c2c(F)c(F)c(F)c(F)c2F)=C2C=CC(=[N+]23)C(c2cc[n+](C)cc2)=c2ccc([n]25)=C4c2c(F)c(F)c(F)c(F)c2F)cc1.[I-].[I-] (centres unmarked) [2P-Mn, 5,15-bis(N-methyl-4-pyridilium)-10,20-bis-(pentafluoro-phenyl)porphyrinato manganese(III) diiodide salt, reference compound]
- cytoprotective effect against H2O2-induced toxicity (RIN-m cells [4]): totally inefficient; also recorded: inefficiency

Structure (SMILES): C[n+]1ccccc1C1=C2C=CC3=[N+]2[Mn-]24[n]5c1ccc5-c1ccc([n]12)C(c1cccc[n+]1C)=c1ccc([n]14)=C3c1cccc[n+]1C (centres unmarked) [3C-Mn, 5,10,15-tris(N-methyl-2-pyridilium)corrolato manganese(III)]
- nitrotyrosine (Ntyr) staining, SIN-1-induced (nitrotyrosine (Ntyr)): totally abolished
- Yield (%) or amount of product (Formaldehyde) [2, 10]: 0 µM
- Yield (%) or amount of product (Formaldehyde) [2, 11]: 0 µM
- preventing oxidative damage / protection against metal-induced oxidation of substrates ([2]; summary of Table 3): protect better than corrole 1C-Mn
- cytoprotection against different SIN-1 concentrations (SH-SY5Y cells [7]; 25 μM corrole, FIG. 12C): protect cells against different SIN-1 concentrations
- protection against SIN-1 (MTT reduction analysis and ELISA assay) (SH-SY5Y cells [7]; 30 min before SIN-1, 24 h (Example 12)): protect, in a dose-dependent manner; also recorded: more effective not only than 2C-Mn
- kcat, catalytic rate constant for decomposition of PN [5]: 25000 M⁻¹ s⁻¹
- pIC50 [1]: 5.49
- kcat, peroxynitrite decomposition rate [6]: 25000 M⁻¹ s⁻¹
- protection against 6-OHDA compared with porphyrins 1P-Fe and 2P-Mn (SH-SY5Y cells [8]; 6-OHDA 40 μM, immunofluorescence): remarkable superiority over the porphyrins
- 6-OHDA-induced cytotoxicity (MTT, cell death ELISA) (SH-SY5Y cells [8]; [12]): significantly attenuated 6-OHDA-induced cytotoxicity
- cell mortality, morphology and apoptotic nuclei (GAP-43 immunofluorescence, TUNEL, DAPI) (SH-SY5Y cells [8]; [12]): significantly attenuated 6-OHDA-induced cell mortality, improved cell morphology and reduced the number of apoptotic nuclei
- preventing H2O2-mediated cytotoxicity (SH-SY5Y cells [9]): not effective
- 6-OHDA-induced increase of cleaved caspase-3 (cleaved caspase-3): totally

Structure (SMILES): C[n+]1ccccc1C1=C2C=CC3=[N+]2[Mn-]24[n]5c1ccc5-c1ccc([n]12)C(c1cccc[n+]1C)=c1ccc([n]14)=C3c1c(F)c(F)c(F)c(F)c1F (centres unmarked) [4C-Mn, 5,15-bis(N-methyl-2-pyridilium) 10-pentafluorophenyl corrolato manganese(III)]
- kcat, peroxynitrite decomposition rate [6]: 160000 M⁻¹ s⁻¹

Structure (SMILES): COc1c(F)c(F)c(C2=C3C=CC4=[N+]3[Fe-]35[n]6c(cc(S(=O)(=O)O)c62)-c2c(S(=O)(=O)O)cc([n]23)C(c2c(F)c(F)c(OC)c(F)c2F)=c2ccc([n]25)=C4c2c(F)c(F)c(OC)c(F)c2F)c(F)c1F (centres unmarked) [6C-Fe, 2,17-bis-sulfonato-5,10,15-tris(p-methoxy-tetra-fluorophenyl)iron(III) corrole]
- pIC50 [1]: 5.93
